Reference: the NIST ThermoML archive (doi:10.1021/je400310h)

Test: mn = molality of the nth substance listed, in mol/kg
Conditions: 101 kPa, Liquid, Vibrating tube method

C[n+]1ccn(CC(=O)O)c1.[Cl-] [1-carboxymethyl-3-methylimidazolium chloride] + O
mass density [kg/m3]
Conditions	m1 = 0.0302	m1 = 0.0505	m1 = 0.1018	m1 = 0.2072	m1 = 0.5443	m1 = 1.214	m1 = 2.041	m1 = 3.094	m1 = 4.466	m1 = 6.375
293.15 K	999.87	1000.94	1003.6	1008.87	1024.61	1052.15	1080.57	1110.21	1140.75	1173
298.15 K	998.71	999.76	1002.36	1007.5	1022.95	1050.32	1078.44	1107.83	1138.14	1170.21
303.15 K	997.12	998.24	1000.9	1006.06	1021.26	1048.33	1076.13	1105.34	1135.4	1167.36

CCC[n+]1ccn(CC(=O)O)c1.[Cl-] [1-(carboxymethyl)-3-propylimidazolium chloride] + O
mass density [kg/m3]
Conditions	m1 = 0.0302	m1 = 0.0505	m1 = 0.1021	m1 = 0.2084	m1 = 0.5569	m1 = 1.257	m1 = 2.166	m1 = 3.386	m1 = 5.114	m1 = 7.768
293.15 K	999.68	1000.6	1002.96	1007.61	1021.7	1046.14	1071.45	1097.44	1123.69	1150.29
298.15 K	998.52	999.44	1001.71	1006.08	1019.83	1044.05	1069.11	1094.76	1120.74	1147.15
303.15 K	997.01	998	1000.1	1004.64	1018.22	1041.75	1066.6	1091.97	1117.73	1143.97

CCC[n+]1ccn(CCO)c1.[Cl-] [1-(2-hydroxylethyl)-3-propylimidazolium chloride] + O
mass density [kg/m3]
Conditions	293.15 K	298.15 K	303.15 K
m1 = 0.01	998.4	997.35	995.88
m1 = 0.0505	999.68	998.47	997.08
m1 = 0.102	1001.01	999.89	998.4
m1 = 0.208	1004.05	1002.76	1001.15
m1 = 0.5535	1012.98	1011.56	1009.99
m1 = 1.175	1027.62	1025.68	1023.8
m1 = 2.103	1046.02	1043.76	1041.7
m1 = 3.23	1063.98	1061.54	1058.92
m1 = 4.772	1082.55	1079.86	1077.08
m1 = 5.992	1093.61	1090.78	1087.9
m1 = 7.003	1101.22	1098.33	1095.39
